Converted amounts (≈) assume the structure as drawn.
settings: buffer; pH 7.4; 200.0 µM

| Structure (SMILES) | solubility kinetic [µg/mL] |
| --- | --- |
| CSc1ncc(CN2CCCC(C(=O)c3cccc(Cl)c3)C2)cn1 (stereo not given) | 29 (≈ 80.1 µM) |
| Cc1ccccc1Oc1nc2c(c(=O)n(C)c(=O)n2C)n1C | > 45 |
| CC(C)[C@H](NC(=O)c1ccccc1)C(=O)OCC(=O)Nc1ccc(S(=O)(=O)N2CCOCC2)cc1 | 3 (≈ 5.96 µM) |
| Cc1[nH]c2ccccc2c(=O)c1CN1CCCCCC1 | > 40.6 |
| Cc1cc(O)c(Sc2ccc(Cl)cc2)c(=O)[nH]1 | > 40.2 |
| CCN(CC)C(=O)c1cccc(NC(=O)C2CCN(C(=O)c3cccs3)CC2)c1 | > 62 |
| CCn1ccc(C(=O)NCCCN2CCCC2=O)n1 | > 39.6 |
| CCn1ccc(-c2ccccc2)c(C#N)c1=O | > 33.6 |
| CC12CC3(C)CC(C)(C1)CC(C(=O)NCc1ccccn1)(C2)C3 | 42.4 (≈ 136 µM) |
| COc1ccc(NC(=S)N2CCC(Cc3ccccc3)CC2)cc1OC | 2.4 (≈ 6.48 µM) |
| CN(C)C(CNC(=O)CCOc1ccccc1)c1ccco1 (stereo not given) | 43 (≈ 142 µM) |
| O=C(OCCN=C1NS(=O)(=O)c2ccccc21)c1ccccc1F | 5.7 (≈ 16.4 µM) |
| COC(=O)C(NC(C)=O)(Nc1ccc(C)cn1)C(F)(F)F (stereo not given) | > 45.8 |
| Cc1cc(C)c2c(CN3CCOCC3)cc(=O)oc2c1 | 37.2 (≈ 136 µM) |
| Cc1c(C(=O)Nc2ccccn2)oc2c(Cl)cccc12 | 9.4 (≈ 32.8 µM) |
| O=S(=O)(c1ccc(-c2ccccn2)s1)N1CCC2(CC1)OCCO2 | 1.5 (≈ 4.09 µM) |
| Cc1ncc([N+](=O)[O-])n1CC(=O)Nc1ccccc1F | > 41.7 |
| CCC1C(C#N)=C(N)Oc2c1c(=O)oc1ccccc21 (stereo not given) | 8.6 (≈ 32.1 µM) |
| O=C(Cc1ccc(Br)cc1)Nc1ncc([N+](=O)[O-])s1 | 7.8 (≈ 22.8 µM) |
| CCC(C)c1ccc(NC(=O)Nc2cnccn2)cc1 (stereo not given) | 1.3 (≈ 4.81 µM) |

| Structure (SMILES) | solubility kinetic [µg/mL] |
| --- | --- |
| COCCn1c(SCC(=O)c2ccccc2)nc2c(c1=O)SCC2 | 42.5 (≈ 117 µM) |
| Nc1cc(Cl)ccc1C(=O)OCC(=O)NC1CCCCC1 | 0.5 (≈ 1.61 µM) |
| CCOC(=O)c1cc(C#N)c(N2CCNCC2)nc1C(F)(F)F | > 49.2 |
| Cc1ccc(OCCNC(=O)C(C)SCC(=O)Nc2ccc(F)cc2)cc1 (stereo not given) | 35 (≈ 89.6 µM) |
| COc1nc(C)nc(C)c1Oc1ccc(Cl)cc1Cl | 1.5 (≈ 5.01 µM) |
| COCCNc1nc(-c2ccccc2)nc2c1oc1ccccc12.Cl | 4.6 |
| Cc1ccccc1N1CC2=C(C1=O)C(c1ccccc1)NC(=O)N2C (stereo not given) | 0.5 (≈ 1.5 µM) |
| Cc1ccccc1Nc1c(-c2cccnc2)nc2ccccn12 | 17.6 (≈ 58.6 µM) |
| CCOC(=O)CN1C(=O)S/C(=C\c2ccc3c(c2)OCO3)C1=O | 1.8 (≈ 5.37 µM) |
| C=CCSc1nc(N)c2c3c(sc2n1)CN(C)CC3 | 43.5 (≈ 149 µM) |
| Cc1onc(-c2ccccc2)c1C(=O)NCc1ccccc1F | 6.5 (≈ 20.9 µM) |
| CC(C)CN1CCN(Cc2ccccc2C(F)(F)F)CC1CCO (stereo not given) | 48.7 (≈ 141 µM) |
| CC(C)c1ccccc1OCC(=O)N1CCCN(C)CC1 | > 43.6 |
| Cc1noc(C)c1COc1ccc(C(=O)N2CCN(S(=O)(=O)c3cccc(F)c3)CC2)cc1 | 25.1 (≈ 53 µM) |
| CCS(=O)(=O)c1ccc2c(c1)NC(=O)C(CCO)O2 (stereo not given) | 40.4 (≈ 142 µM) |
| Cn1c(SCC(=O)Nc2cccnc2Cl)nc2ccccc21 | 37.9 (≈ 114 µM) |
| CC1CCCCC1NC(=O)COC(=O)COc1ccccc1Cl (stereo not given) | 17.8 (≈ 52.4 µM) |
| Cn1ccnc1C1CCCCN1Cc1nc(Cc2ccccc2F)no1 (stereo not given) | 49.9 (≈ 140 µM) |
| Nc1ncnc(N2CCc3ccccc32)c1[N+](=O)[O-] | 1.8 (≈ 7 µM) |
| Cc1cccc2nc(CSc3ncccc3C(=O)O)cn12 | 39.3 (≈ 131 µM) |

| Structure (SMILES) | solubility kinetic [µg/mL] |
| --- | --- |
| COc1ccccc1N1CCN(CC(O)c2c(C)[nH]c3ccccc23)CC1 (stereo not given) | > 54.8 |
| c1ccc(SCc2cn3cccnc3n2)nc1 | > 36.3 |
| CC1CCCCC1NC(=S)NC(=O)c1cccs1 (stereo not given) | 5.5 (≈ 19.5 µM) |
| CC(=O)c1cn(Cc2ccccc2C#N)c2ccccc12 | 7 (≈ 25.5 µM) |
| FC(F)(F)c1ccccc1-n1ccnc1 | 30.2 (≈ 142 µM) |
| CCSc1nnc(NC(=O)C2CSC3(C)CCC(=O)N23)s1 (stereo not given) | > 51.7 |
| CCc1ccc(NC(=O)CCc2nc3ccccc3[nH]2)cc1 | 0.7 (≈ 2.39 µM) |
| CC(C)CCNC(=O)NC(=O)CSc1ncccn1 | 28.9 (≈ 102 µM) |
| COc1ccccc1C1CC(=O)NC(C)=C1C(=O)OC(C)C (stereo not given) | 28.4 (≈ 93.6 µM) |
| CC1CCc2ccccc2N1C(N)=Nc1ccccc1.Cl (stereo not given) | > 45.3 |
| O=C(NCC(O)CO)c1csc(Nc2cccc3ccccc23)n1 (stereo not given) | 38.5 (≈ 112 µM) |
| CCOc1ccc(S(=O)(=O)NCCC(=O)OCC(=O)NC(=O)c2cccn2C)cc1 | 22.2 (≈ 50.7 µM) |
| COc1ccccc1N(CC(=O)Nc1cc(S(=O)(=O)N(C)C)ccc1C)S(=O)(=O)c1cccs1 | 14.4 (≈ 27.5 µM) |
| COc1ccc(S(=O)(=O)N2CCN(CC(=O)N3CCOCC3)CC2)cc1OC | > 62 |
| C/C(CC(C)C)=N\Oc1nc(C)cc(C)n1 | > 33.2 |
| CN1CCN(/N=C/c2c[nH]c3ccccc23)CC1 | > 36.3 |
| NC(=O)c1cc(-c2cccnc2)nc2ccc(Br)cc12 | 2.2 (≈ 6.7 µM) |
| CCCCOc1cc(C(=O)NCCN(CC)CC)c2ccccc2n1.Cl | > 57 |
| O=C(CN1CCN(c2ccccc2F)CC1)c1ccc(O)c(O)c1 | 47.6 (≈ 144 µM) |
| O=C(O)C1C2C=CC(C2)C1C(=O)NCc1ccco1 (stereo not given) | 36.2 (≈ 139 µM) |
